Assay results: PubChem BioAssay AID2060907 (Molecular Pharmacology Branch, DTP, NCI, 2025)

Test system: 388556-164-R-J1-PDC complex spheroid viability
Assay: Anticancer human tumor 388556-164-R-J1-PDC patient-derived colon adenocarcinoma cell line growth inhibition [RAS]
Details: for IC50: curve of first compound; for viability, T/C: stronger effect = lower value; active means viability on the fitted dose curve at most 10% of control; inactive means the rest
In short: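 Multi-cell-type spheroids: tumor cells plus HUVEC endothelial cells and mesenchymal stem cells. RAS-pathway inhibitors were combined with targeted agents, each dosed in half-log steps down from clinical Cmax, or from 10 microM when Cmax was unknown.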

[1] = second compound 0.0316 µM, first compound 0.0316 µM
[2] = second compound 0.0316 µM, first compound 0.1 µM
[3] = second compound 0.0316 µM, first compound 0.316 µM
[4] = second compound 0.0316 µM, first compound 1 µM
[5] = second compound 0.1 µM, first compound 0.0316 µM
[6] = second compound 0.1 µM, first compound 0.1 µM
[7] = second compound 0.1 µM, first compound 0.316 µM
[8] = second compound 0.1 µM, first compound 1 µM
[9] = second compound 0.316 µM, first compound 0.0316 µM
[10] = second compound 0.316 µM, first compound 0.1 µM
[11] = second compound 0.316 µM, first compound 0.316 µM
[12] = second compound 0.316 µM, first compound 1 µM
[13] = second compound 1 µM, first compound 0.0316 µM
[14] = second compound 1 µM, first compound 0.1 µM
[15] = second compound 1 µM, first compound 0.316 µM
[16] = second compound 1 µM, first compound 1 µM
[17] = second compound 3.16 µM, first compound 0.0316 µM
[18] = second compound 3.16 µM, first compound 0.1 µM
[19] = second compound 3.16 µM, first compound 0.316 µM
[20] = second compound 3.16 µM, first compound 1 µM
[21] = second compound 10 µM, first compound 0.0316 µM
[22] = second compound 10 µM, first compound 0.1 µM
[23] = second compound 10 µM, first compound 0.316 µM
[24] = second compound 10 µM, first compound 1 µM
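Further: spheroids exposed to compound for 7 days before readout.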
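Wherever viability, T/C is given: 100% = DMSO vehicle control luminescence.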

CCC(CC)c1cc(NC2CCC(N)C2)n2nccc2n1 (centres undefined) + C#Cc1c(F)ccc2cc(O)cc(-c3ncc4c(N5CC6CCC(C5)N6)nc(OCC56CCCN5CC(F)C6)nc4c3F)c12
3290 nM: IC50 (second compound 0.0316 µM)
2580 nM: IC50 (second compound 0.316 µM)
1320 nM: IC50 (second compound 10 µM)
2490 nM: IC50 (second compound 1 µM)
inactive: viability, T/C [1] 98.2% | viability, T/C [2] 97.2% | viability, T/C [3] 109% | viability, T/C [4] 101% | viability, T/C (second compound 0.0316 µM, first compound 3.16 µM) 50.7% | viability, T/C (second compound 0.0316 µM, first compound 10 µM) 32.1% | viability, T/C [5] 98.2% | viability, T/C [6] 99.1% | viability, T/C [7] 102% | viability, T/C [8] 94.7% | viability, T/C (second compound 0.1 µM, first compound 3.16 µM) 33.4% | viability, T/C (second compound 0.1 µM, first compound 10 µM) 30.8% | viability, T/C [9] 102% | viability, T/C [10] 98% | viability, T/C [11] 83.1% | viability, T/C [12] 96.7% | viability, T/C (second compound 0.316 µM, first compound 3.16 µM) 40.3% | viability, T/C (second compound 0.316 µM, first compound 10 µM) 27.3% | viability, T/C [13] 82.5% | viability, T/C [14] 83.3% | viability, T/C [15] 68.8% | viability, T/C [16] 86.8% | viability, T/C (second compound 1 µM, first compound 3.16 µM) 42% | viability, T/C (second compound 1 µM, first compound 10 µM) 24.2% | viability, T/C [17] 73.9% | viability, T/C [18] 69.7% | viability, T/C [19] 66.3% | viability, T/C [20] 78.8% | viability, T/C (second compound 3.16 µM, first compound 3.16 µM) 33.2% | viability, T/C (second compound 3.16 µM, first compound 10 µM) 20.8% | viability, T/C [21] 64.1% | viability, T/C [22] 65.6% | viability, T/C [23] 66.4% | viability, T/C [24] 60.4% | viability, T/C (second compound 10 µM, first compound 3.16 µM) 16.9% | viability, T/C (second compound 10 µM, first compound 10 µM) 15.5%
1930 nM: IC50 (second compound 3.16 µM)
2310 nM: IC50 (second compound 0.1 µM)

O=C(c1ccc(F)c(F)c1Nc1ccc(I)cc1F)N1CC(O)([C@@H]2CCCCN2)C1 + C#Cc1c(F)ccc2cc(O)cc(-c3ncc4c(N5CC6CCC(C5)N6)nc(OCC56CCCN5CC(F)C6)nc4c3F)c12
84.8 nM: IC50 (second compound 3.16 µM)
inactive: viability, T/C (second compound 0.0316 µM, first compound 0.00316 µM) 100% | viability, T/C (second compound 0.0316 µM, first compound 0.01 µM) 95.1% | viability, T/C [1] 79% | viability, T/C [2] 61.6% | viability, T/C [3] 37.2% | viability, T/C [4] 22.1% | viability, T/C (second compound 0.1 µM, first compound 0.00316 µM) 99.7% | viability, T/C (second compound 0.1 µM, first compound 0.01 µM) 103% | viability, T/C [5] 86% | viability, T/C [6] 66.1% | viability, T/C [7] 39.2% | viability, T/C [8] 22.2% | viability, T/C (second compound 0.316 µM, first compound 0.00316 µM) 100% | viability, T/C (second compound 0.316 µM, first compound 0.01 µM) 99.4% | viability, T/C [9] 64.3% | viability, T/C [10] 59.3% | viability, T/C [11] 35.9% | viability, T/C [12] 17.2% | viability, T/C (second compound 1 µM, first compound 0.00316 µM) 89.8% | viability, T/C (second compound 1 µM, first compound 0.01 µM) 81.8% | viability, T/C [13] 55.4% | viability, T/C [14] 60.5% | viability, T/C [15] 31.6% | viability, T/C [16] 16.9% | viability, T/C (second compound 3.16 µM, first compound 0.00316 µM) 79% | viability, T/C (second compound 3.16 µM, first compound 0.01 µM) 62.9% | viability, T/C [17] 61.8% | viability, T/C [18] 51.5% | viability, T/C [19] 32.2% | viability, T/C [20] 15.7% | viability, T/C (second compound 10 µM, first compound 0.00316 µM) 56.7% | viability, T/C (second compound 10 µM, first compound 0.01 µM) 62.1% | viability, T/C [21] 45.3% | viability, T/C [22] 31% | viability, T/C [23] 19.1% | viability, T/C [24] 17.1%
196 nM: IC50 (second compound 0.1 µM)
104 nM: IC50 (second compound 1 µM)
170 nM: IC50 (second compound 0.0316 µM)
135 nM: IC50 (second compound 0.316 µM)
24.1 nM: IC50 (second compound 10 µM)
